# Data taken from patent US20040091479A1, “T-cell epitope of the papillomavirus l1 and e7 protein and use thereof in diagnostics and therapy” (priority 2000, published 2004).
# Columns and labels:
# [1] = test system: LKK cells; assay: 51Cr release: lysing HPV18 peptide-loaded LKK cells (example 17); format: cell-based, murine
# Method: In analogy with example 4, RMA or LKK cells were radioactively labeled with ^51Cr and incubated with the peptides (Q43 and Q44 in the upper part of FIG. 16 and Q49 in the lower part of FIG. 16) which are plotted on the X axis. Cells without peptide served as negative controls. T cells which had previously been stimulated with the peptide pool were then added.
# The lysis of the RMA cells or LKK cells by the T cells was measured by the release of the ^51Cr and calculated as described in example 4.
# [2] = test system: human T cells; assay: Summary of examples 3 to 18: epitopes recognized by human T cells; format: cell-based; details: Table 4, HPV18 peptides, species human
# [3] = test system: HPV18 CVLP-stimulated human T cells; assay: Restimulating HPV18 CVLP-stimulated T cells with BLCL presenting Q38, Q39, Q46 or Q47 (example 13); format: cell-based
# Method: In analogy with example 6, human T cells (4×10^5) derived from a non-HLA-typed blood donor were stimulated with HPV18L1ΔCDIE71-53DI CVLPs and HPV18L1ΔCDIE71-60DI CVLPs and harvested.
# The T cells were then restimulated, at 37° C. and in 100 μl of medium, with in each case 1 μg of peptide Q38, Q39, Q46 or Q47/ml and 10^5 antigen-presenting cells (donor-identical BLCL) in the presence of 10 IU of IL2/ml. Cells which were only incubated with buffer served as the negative control while cells which were incubated with the HPV18 L1 peptide pool or the E7 peptide pool served as positive controls.
# (§1) 1 μl of monensin was added after an hour. The cells were then incubated at 37° C. for a further 5 hours. After that, the cells were fixed and permeabilized and stained with α-human CD8/APC, with α-human CD4/PerCP and with α-human IFNγ/FITC. The labeling of the cells was examined in a FACScan Calibur and the results of the measurements were analyzed using Cellquest software.
# [4] = test system: CVLP-stimulated CD4-positive T cells; assay: Restimulating HPV18 CVLP-stimulated T cells with BLCL presenting HPV18 peptide pools (example 12); format: cell-based, human; details: peptide common to two reactive HPV18 pools; CD4/IFNγ
# Method: (§2) In analogy with example 6, human T cells derived from a non-HLA-typed blood donor were stimulated, at 37° C., with HPV18L1ΔCDIE71-53DI CVLPs and HPV18L1ΔCDIE71-60DI CVLPs and harvested.
# The T cells were then restimulated, at 37° C. and in 100 μl of medium, with the HPV18 peptide pools from example 6 and 10^5 antigen-presenting cells (donor-identical BLCL) in the presence of 10 IU of IL2/ml. Use was made, in this connection, of quantities of the peptide pools which were such that 1 μg/ml was added in the case of each individual peptide. Cells which were only incubated with buffer served as the negative control while cells which were incubated with HPV18 L1 peptide pool served as the positive control.
# as §1
# [5] = test system: CVLP-stimulated human CD4-positive T cells; assay: Restimulating HPV18 CVLP-stimulated T cells with BLCL presenting HPV18 peptide pools (example 6); format: cell-based; details: peptide common to two reactive HPV18 pools; CD4/IFNγ
# Method: Human T cells (4×10^5) from a non-HLA-typed blood donor were stimulated for 1 week with HPV18 L1ΔCDIE71-53DI CVLPs and HPV18 L1ΔACDIE71-60DI CVLPS, 800 U of human GM-CSF/ml and 500 U of human IL4/ml and also, for a further 5 weeks, with HPV18 L1ΔCDIE71-53DI CVLPs and HPV18 L1ΔCDIE71-6ODI CVLPs at 37° C., with the weekly addition of 1 μg of the CVLPs mixLure (ratio of the two constructs 1:1)/ml and 10^5 antigen-presenting cells (irradiated PMBC), and harvested.
# The 20 mer peptides Q1 to 52 were assembled into peptide pools A to H and 1 to 7, respectively, in accordance with the matrix
# The T cells were then restimulated, at 37° C. and in 100 μl of medium, with the peptide pools and 10^5 antigen-presenting cells (donor-identical BLCL) in the presence of 10 IU of IL2/ml. The quantities of the peptide pools which were used in this connection were such that. 1 μg/ml was added in the case of each individual peptide.
# Cells which were only incubated with buffer served as the negative control while cells incubated with the HPV18 L1 peptide pool and the HPV18 E7 peptide pool, respectively, served as positive controls.
# 1 μl of monensin was added after an hour. The cells were then incubated at 37° C. for a further 5 hours. After that, the cells were fixed and permeabilized and stained with α-human CD8/APC, with α-human CD4/PerCP and with α-human IFNγ/FITC. The labeling of the cells was analyzed in a FACScan Calibur and the results of the measurements were analyzed using Cellquest software.
# [6] = test system: autologous peptide-loaded BLCL; assay: Cytotoxicity test (chromium release assay) of HPV18 E786-94-specific T cells; format: cell-based, human; details: effector to target ratio of 30:1, FIG. 17 bottom
# Method: The predicted peptides were synthesized using standard methods (F moc method). […] For this, 1×10^5 PBMC derived from healthy, HLA-A2-positive donors were sown, in 100 μl of medium (RPMI 1640, 10% heat-inactivated AB plasma), in each well of a 96-well plate. 20 μg of peptide/ml were added to the culture medium. The cells were incubated at 37° C. and restimulated once per week with irradiated peptide-loaded autologous PBMC. The stimulator PBMC were incubated for 4 hours in medium containing 20 μg of peptide/ml. After the irradiation, they were diluted down to 1×10^4/100 μl with medium and added to the peptide-stimulated PBMC. For this, half the medium was aspirated from each well and 100 μl of the stimulator PBMC suspension were added. 10 U of IL-2/ml and 10 U of IL-7/ml were added from the 3rd stimulation onwards. From the 5th stimulation onwards, restimulation was carried out in the same manner using peptide-loaded autologous B lymphoblast cell lines (BLCL).
# The cytotoxicity of HPV18 E786-94-specific T cells was determined in a chromium release assay. Autologous BLCL were used as the target cells. In each case, 5×10^5 cells were taken up in 100 μl of medium (RPMI 1640, 10% FCS) and treated with 20 μl of ^51chromium (NEN). For loading the BLCL with peptide, 50 μg of the corresponding peptide were added/ml. After that, the cells were incubated at room temperature for 2 hours while being carefully resuspended every 20-30 min. The cells were then washed 3 times with 5 ml of medium. For the sedimenting, the cells were in each case centrifuged at 1500 rpm for 5 min and then carefully resuspended. […]
# The assay samples were incubated for 4 hours at 37° C., 98% atmospheric humidity and 5% CO2. […] On the following day, 150 μl of Microscint 40 scintillation fluid (Canberra-Packard, Deieich) were added and the numbers of distintegrations per minute in the individual assay samples were measured in the scintillation counter (Topcount, Canberra-Packard, Dreieich).
# The specific lysis was calculated using the following formula: […]
# [7] = test system: CVLP-stimulated CD4-positive T cells; assay: Restimulating HPV18 CVLP-stimulated T cells with BLCL presenting pools or Q30 (example 15); format: cell-based, human
# Method: as §2
# The T cells were then restimulated, at 37° C. and in 100 μl of medium, with the peptide pools from example 6 and 10^5 antigen-presenting cells (donor-identical BLCL) in the presence of 10 IU of IL2/ml. Use was made, in this connection, of quantities of the peptide pools which were such that 1 μg/ml was added in the case of each individual peptide. Cells which were only incubated with buffer served as the negative control while cells which were incubated with the HPV18 L1 or E7 peptide pool served as positive controls (upper part of FIG. 14). In the case of the lower part of FIG. 14, the T cells were restimulated, at 37° C. and in 100 μl of medium, with peptide pools F and 4 and with 1 μg of peptide Q30/ml and 10^5 antigen-presenting cells (donor-identical BLCL) in the presence of 10 IU of IL2/ml.
# 1 μl of monensin was added after an hour. The cells were then incubated at 37° C. for a further 5 hours. After that, the cells were fixed and permeabilized and stained with α-human […], with α-human CD4/PerCP and with α-human IFNγ/FITC. The labeling of the cells was examined in a FACScan Calibur and the results of the measurements were analyzed using Cellquest software.
# [8] = test system: T cell line generated with HeLa CD80/HLA-A2 transfectants (H7.1-A2); assay: IFN-γ ELISpot of H7.1-A2-specific T cell line against peptide-loaded autologous PBMC; format: cell-based, human; details: H7.1-A2-induced T cell line, FIG. 17 top
# [9] = test system: CVLP-stimulated CD8-positive T cells; assay: Restimulating HPV16 CVLP-stimulated T cells with P33-presenting BLCL (example 11); format: cell-based, human
# Method: In analogy with example 6, human T cells derived from a non-HLA-typed blood donor were stimulated with HPV16L1ΔC*E71-55 CVLPs and harvested.
# The T cells were then restimulated, at 37° C. and in 100 μl of medium, with 1 μg of peptide P33/ml and 10^5 antigen-presenting cells (donor-identical BLCL) in the presence of 10 IU of IL2/ml. Cells which were only incubated with buffer served as the negative control while cells which were incubated with HPV16 L1 peptide pool served as the positive control.
# as §1
# [10] = test system: P33-loaded RMA cells; assay: 51Cr release: lysing P33-loaded RMA cells; format: cell-based, C57BL/6 mouse
# Method: RMA cells were incubated at 37° C. for one hour with ^51Cr, washed three times with medium and divided into 2 aliquots. 10 μg of the P33 peptide/ml were added to one aliquot of the cells while the other aliquot served as the negative control in the absence of the peptide. In each case 2000 of the cells (=target cells) were then added to 40.000 T cells (=effector cells) in a total volume of 150 μl. The T cells had previously been stimulated for 5 weeks with a mixture composed of 43 peptides (peptides 1-43, in each case 1 μg/ml).
# Assay mixtures for spontaneous and maximal lysis of the cells were set up in parallel. Target cells which were incubated with culture medium were used for the spontaneous lysis. For the maximal lysis, target cells were lysed by adding 0.5% Triton X100.
# The assay mixtures were incubated at 37° C. for 5 h. 50 μl volumes of the supernatants from the assay mixtures were added to Luma plates and dried overnight at room temperature. On the following morning, the quantity of radioactive ^51Cr (counts) was determined using a Canberra-Packerd B Plate Counter and related to the maximally lysed cells in the Triton assay mixture. The % specific lysis was then determined using the formula:
# x=100·(counts−spontaneous counts)/(maximal counts−spontaneous counts).
substance,measurement,setting,value
"PQRHTMLCMCCKCEARIKLV [Q49, HPV18 E7 56-75]",T cell epitope assignment,[1]; conclusion from FIG. 16 lower part,H2k-restricted cytotoxic T cell epitope
same,specific lysis of target cells (51Cr release),"[1]; peptide-loaded LKK cells, effector:target 20, FIG. 16 lower part",able to efficiently lyse
"VDLLCHEQLSDSEEENDEID [Q46, HPV18 E7 23-42]",Epitope type,[2],TH1
same,proportion of reactive CD4-positive and IFNγ-positive T cells,"[3]; 1 μg peptide/ml, donor-identical BLCL, FIG. 12 top left",markedly higher than in the negative control
same,proportion of CD8-positive and IL4-positive cells,"[3]; 1 μg peptide/ml, FIG. 12 lower right","low, and comparable to the negative control"
same,T cell epitope assignment (TH1),[3]; conclusion from FIG. 12 top left,contain a TH1 epitope
same,T cell epitope assignment (TH1),[4],contain a TH1 epitope
same,T cell epitope assignment,[5],contain T helper epitopes
"HPV18 E77-15: control peptide; HPV18 E77-15 epitope described by Rudolf MP et al. (2001) (TLQDIVLHL; UniProt P06788 7-15, looked up, fragment)",specific lysis,[6],No specific lysis
"HPV16 E628-36: control peptide in the chromium release assay (TTIHDIILE; UniProt P03126 28-36, looked up, fragment)",specific lysis,[6],No specific lysis
"NNGVCWHNQLFVTVVDTTRS [Q30, HPV18 L1 320-339]",T cell epitope assignment (TH1),[7]; peptide common to pools F and 4,contains a TH1 epitope
same,"proportion of reactive CD4-positive and IFNγ-positive T cells, confirmation experiment","[7]; pools F or 4 or 1 μg Q30/ml compared with each other, FIG. 14",comparable
same,Epitope type,[2],TH1
"HPV16 E728-36: control peptide in the ELISpot analysis (LNDSSEEED; UniProt P03129 28-36, looked up, fragment) [reference compound]",IFN-γ ELISpot reaction,[8],did not induce any IFN-γ secretion
"TTYKNTNFKEYLRHGEEYDL [P33, HPV16 L1 353-372]",proportion of CD8-positive T cells reactive on the basis of IFNγ expression,"[9]; 1 μg P33/ml, donor-identical BLCL, versus negative control, FIG. 10",markedly higher
same,T cell epitope assignment,[9]; conclusion from FIG. 10,contains a cytotoxic T cell epitope
same,specific lysis of target cells (51Cr release),"[10]; 10 μg P33/ml, effector:target 20, T cells stimulated with peptides P1-P43, FIG. 2",able to efficiently lyse
same,T cell epitope assignment,[10]; conclusion from FIG. 2,H2b-restricted cytotoxic T cell epitope
